One assay concerns the target T1, FLT-3 (Homo sapiens, UniProt P36888).
T1 construct: 0.02% BSA and 3 nM FLT-3
T1 sequence (P36888 27-993): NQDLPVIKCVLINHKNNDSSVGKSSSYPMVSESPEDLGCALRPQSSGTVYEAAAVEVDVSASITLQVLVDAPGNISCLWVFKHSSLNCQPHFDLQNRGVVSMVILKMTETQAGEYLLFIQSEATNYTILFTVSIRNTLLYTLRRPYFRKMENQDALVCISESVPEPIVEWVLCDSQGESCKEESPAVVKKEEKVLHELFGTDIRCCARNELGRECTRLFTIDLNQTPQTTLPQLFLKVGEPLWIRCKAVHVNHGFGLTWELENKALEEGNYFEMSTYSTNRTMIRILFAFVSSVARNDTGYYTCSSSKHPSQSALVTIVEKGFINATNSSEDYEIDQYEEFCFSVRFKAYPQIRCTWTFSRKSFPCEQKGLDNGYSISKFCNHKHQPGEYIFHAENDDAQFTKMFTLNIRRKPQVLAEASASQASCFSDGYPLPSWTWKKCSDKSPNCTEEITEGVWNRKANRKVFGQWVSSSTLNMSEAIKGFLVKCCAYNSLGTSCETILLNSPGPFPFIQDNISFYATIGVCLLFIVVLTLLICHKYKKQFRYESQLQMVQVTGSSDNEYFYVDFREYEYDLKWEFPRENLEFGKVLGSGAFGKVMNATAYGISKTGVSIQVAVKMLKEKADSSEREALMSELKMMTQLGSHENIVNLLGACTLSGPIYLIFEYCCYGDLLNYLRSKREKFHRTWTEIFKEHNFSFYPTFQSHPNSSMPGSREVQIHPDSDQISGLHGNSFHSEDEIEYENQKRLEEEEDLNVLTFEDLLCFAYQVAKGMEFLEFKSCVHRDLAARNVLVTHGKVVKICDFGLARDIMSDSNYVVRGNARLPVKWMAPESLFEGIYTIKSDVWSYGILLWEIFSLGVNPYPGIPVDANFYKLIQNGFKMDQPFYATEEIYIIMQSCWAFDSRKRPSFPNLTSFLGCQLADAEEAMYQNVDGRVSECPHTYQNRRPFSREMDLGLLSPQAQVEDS
In words: Inhibition of FLT-3, radiometric filter-binding assay. The assay is classed as biochemical. The settings on record: 90 μM ATP, 0.5 mg/mL pE4Y, room temperature. Summed up:
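Radiometric filter-binding assay of FLT-3 (3 nM in Solution 2; final conc not stated) phosphorylating poly(Glu,Tyr) 4:1 (0.5 mg/mL) with 90 μM ATP plus [γ-33P]ATP, in HEPES pH 7.5, MgCl2, NaCl, DTT, BSA, 2.5% DMSO. 12-point titration, typically 0.01–5 μM, 20 min at room temperature; TCA-stopped, filtered, scintillation-counted; IC50 or Ki fitted.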

In a further assay the target is T2, c-KIT (Homo sapiens, UniProt P10721).
T2 construct: 0.02% BSA and 25 nM c-KIT
T2 sequence (P10721 26-976): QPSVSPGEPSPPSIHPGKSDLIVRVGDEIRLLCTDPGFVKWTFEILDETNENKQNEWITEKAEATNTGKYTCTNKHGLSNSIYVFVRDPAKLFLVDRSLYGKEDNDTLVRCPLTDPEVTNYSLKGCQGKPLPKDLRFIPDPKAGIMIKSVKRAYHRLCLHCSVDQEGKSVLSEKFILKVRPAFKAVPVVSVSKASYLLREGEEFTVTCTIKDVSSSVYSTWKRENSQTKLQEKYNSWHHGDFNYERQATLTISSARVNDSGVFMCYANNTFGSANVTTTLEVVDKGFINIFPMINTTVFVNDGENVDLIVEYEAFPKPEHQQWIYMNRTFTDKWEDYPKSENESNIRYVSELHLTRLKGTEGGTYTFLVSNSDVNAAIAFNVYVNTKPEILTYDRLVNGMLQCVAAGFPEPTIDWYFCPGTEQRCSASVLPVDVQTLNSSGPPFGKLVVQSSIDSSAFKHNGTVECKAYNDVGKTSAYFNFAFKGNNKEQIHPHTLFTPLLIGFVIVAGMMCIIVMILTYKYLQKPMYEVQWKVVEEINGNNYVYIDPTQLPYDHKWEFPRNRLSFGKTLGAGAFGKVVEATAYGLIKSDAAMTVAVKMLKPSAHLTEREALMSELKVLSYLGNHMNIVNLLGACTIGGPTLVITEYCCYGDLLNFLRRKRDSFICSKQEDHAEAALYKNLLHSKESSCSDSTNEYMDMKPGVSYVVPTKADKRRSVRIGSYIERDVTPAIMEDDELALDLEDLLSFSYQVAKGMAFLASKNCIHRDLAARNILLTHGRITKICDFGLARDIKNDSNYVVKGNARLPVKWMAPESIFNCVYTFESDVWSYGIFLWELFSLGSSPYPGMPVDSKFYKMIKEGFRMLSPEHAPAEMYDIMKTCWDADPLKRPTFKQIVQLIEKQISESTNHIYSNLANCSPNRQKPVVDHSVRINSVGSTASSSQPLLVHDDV
Briefly: Inhibition of c-KIT, radiometric filter-binding assay. The note with it: 700 μM ATP, 0.5 mg/mL pE4Y, room temperature. Format: biochemical. The procedure, abridged: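 Radiometric filter-binding: 25 nM c-KIT (enzyme in the Solution 2 mix) with poly(Glu,Tyr) 4:1 substrate at 0.5 mg/mL and [γ-^33P]ATP at 700 μM (both final), in HEPES pH 7.5/MgCl2/NaCl/DTT/BSA with 2.5% DMSO. Incubated 20 min at room temperature, stopped with TCA, and ^33P incorporation counted on filters. 12-point titration, final compound typically 0.01-5 μM; IC50 or Ki from curve fit.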

Structures are written as SMILES.

One may read the Ki as a dissociation constant, usually derived from enzyme kinetics or from competition with a known ligand. A higher Ki goes with weaker binding.

Turning to `Cc1cnc2[nH]cc(-c3oncc3-c3cccc(F)c3F)c2c1` [Compound 46, 3-[4-(2,3-Difluoro-phenyl)-isoxazol-5-yl]-5-methyl-1H-pyrrolo[2,3-b]pyridine], the Ki on FLT-3 and on c-KIT was 0.2 to 1 µM throughout. On to `Fc1cccc(-n2cnnc2-c2c[nH]c3ncc(-c4ccc(N5CCNCC5)nc4)cc23)c1F` [Compound 111, 3-[4-(2,3-Difluoro-phenyl)-4H-[1,2,4]triazol-3-yl]-5-(6-piperazin-1-yl-pyridin-3-yl)-1H-pyrrolo[2,3-b]pyridine], for which the results for the Ki at FLT-3 and at c-KIT were 1 to 12.5 µM and 0.2 to 1 µM, respectively. For `Fc1cccc(-c2cnoc2-c2c[nH]c3ccc(-c4ccncc4)cc23)c1F` [Compound 34, 3-[4-(2,3-Difluoro-phenyl)-isoxazol-5-yl]-5-pyridin-4-yl-1H-indole], at FLT-3, the Ki fell in the range of 1 to 12.5 µM. Still for that read-out and setting: the value for `OB(O)c1cnc2[nH]cc(-c3oncc3-c3cccc(F)c3F)c2c1` [Compound 154] was 0.2 to 1 µM. Turning to `CN(C)C1CCC(c2cnc3[nH]cc(-c4oncc4-c4cccc(F)c4F)c3c2)CC1` (centres unmarked) [Compound 141, (4-{3-[4-(2,3-Difluoro-phenyl)-isoxazol-5-yl]-1H-pyrrolo[2,3-b]pyridin-5-yl}-cyclohexyl)-dimethylamine], the values for the Ki at FLT-3 and on c-KIT were 0.2 to 1 µM and less than 0.2 µM, respectively. Take `Fc1cccc(-c2cnoc2-c2c[nH]c3nc(Cl)c(-c4ccncc4)cc23)c1F` [Compound 103, 6-Chloro-3-[4-(2,3-difluoro-phenyl)-isoxazol-5-yl]-5-pyridin-4-yl-1H-pyrrolo[2,3-b]pyridine]: the Ki on FLT-3 was in the range of 0.2 to 1 µM. On the same count and under the same terms, the figure for `Fc1cnc2[nH]cc(-c3oncc3-c3cccc(F)c3F)c2c1` [Compound 45, 3-[4-(2,3-Difluoro-phenyl)-isoxazol-5-yl]-5-fluoro-1H-pyrrolo[2,3-b]pyridine] is 1 to 12.5 µM. Consider `OCc1cnc2[nH]cc(-c3oncc3-c3cccc(F)c3F)c2c1` [Compound 55, {3-[4-(2,3-Difluoro-phenyl)-isoxazol-5-yl]-1H-pyrrolo[2,3-b]pyridin-5-yl}-methanol], for which the Ki on FLT-3 was in the range of 1 to 12.5 µM; on c-KIT it was 0.2 to 1 µM. `Fc1cccc(-c2cnoc2-c2n[nH]c3ncccc23)c1F` [Compound 31, 3-(4-(2,3-difluorophenyl)isoxazol-5-yl)-1H-pyrazolo[3,4-b]pyridine] yielded a Ki on FLT-3 of 1 to 12.5 µM.

Consider `Fc1ccc(F)c(-c2cnoc2-c2c[nH]c3ncccc23)c1F` [Compound 41, 3-[4-(2,3,6-Trifluoro-phenyl)-isoxazol-5-yl]-1H-pyrrolo [2,3-b]pyridine], for which the Ki on FLT-3 was 1 to 12.5 µM.

In the case of `NC(=O)c1ccc(-c2cnc3[nH]cc(-c4oncc4-c4cccc(F)c4F)c3c2)cc1` [Compound 153], the Ki on FLT-3 and on c-KIT was less than 0.2 µM each time. `O=C(c1cnc2[nH]cc(-c3oncc3-c3cccc(F)c3F)c2c1)N1CCCC1` [Compound 104, {3-[4-(2,3-Difluoro-phenyl)-isoxazol-5-yl]-1H-pyrrolo[2,3-b]pyridin-5-yl}-pyrrolidin-1-yl-methanone] displayed a Ki at FLT-3 of 1 to 12.5 µM. The same measure, in the same setting: the value for `Fc1cccc(-c2cnoc2-c2c[nH]c3ncc(CCn4cncn4)cc23)c1F` [Compound 132, 3-[4-(2,3-Difluoro-phenyl)-isoxazol-5-yl]-5-(2-[1,2,4]triazol-1-yl-ethyl)-1H-pyrrolo[2,3-b]pyridine] was 0.2 to 1 µM. On the same count and under the same terms, the figure for `Fc1cc(F)c(F)c(-c2cnoc2-c2c[nH]c3ncccc23)c1` [Compound 39, 3-[4-(2,3,5-Trifluoro-phenyl)-isoxazol-5-yl]-1H-pyrrolo [2,3-b]pyridine] is 1 to 12.5 µM; for `Fc1cccc(-c2cnoc2-c2c[nH]c3ncc(Cl)cc23)c1F` [Compound 44, 3-[4-(2,3-Difluoro-phenyl)-isoxazol-5-yl]-5-chloro-1H-pyrrolo[2,3-b]pyridine] it is 1 to 12.5 µM.

Consider `COc1cnc2[nH]cc(-c3nncn3-c3cccc(F)c3F)c2c1` [Compound 108, 3-[4-(2,3-Difluoro-phenyl)-4H-[1,2,4]triazol-3-yl]-5-methoxy-1H-pyrrolo[2,3-b]pyridine], for which the inhibition constant Ki on FLT-3 was 1 to 12.5 µM; at c-KIT, 0.2 to 1 µM. In the same order, the values of `C[N+]1(C)CCN(c2ccc(-c3cnc4[nH]cc(-c5oncc5-c5cccc(F)c5F)c4c3)cc2)CC1` [Compound 155] are less than 0.2 µM and less than 0.2 µM.

For `CN1CCN(C(=O)[C@H]2C[C@@H]2c2cnc3[nH]cc(-c4oncc4-c4cccc(F)c4F)c3c2)CC1` (relative stereo) [Compound 142, trans-(2-{3-[4-(2,3-Difluoro-phenyl)-isoxazol-5-yl]-1H-pyrrolo[2,3-b]pyridin-5-yl}-cyclopropyl)-(4-methyl-piperazin-1-yl)-methanone], the Ki at FLT-3 and at c-KIT was less than 0.2 µM in each case.

The record behind these values is patent US7446199B2, “Compositions useful as inhibitors of protein kinases” (Vertex Pharmaceuticals Incorporated, priority 2003, dated 2008).
